Experimental data reported in PubChem BioAssay (NCI).
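Interpolation was linear, between the two tested concentrations surrounding the appropriate level; five concentrations were tested over 48 hours in 96-well plates. At the TGI there is no net growth.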

Tests used:
Assay in all cases: inhibition of tumour cell growth, NCI panel, 48 h
[1] = system: SW-620 colon
[2] = system: DU-145 prostate
[3] = system: M14 melanoma
[4] = system: MCF7 breast
[5] = system: ACHN renal
[6] = system: KM12 colon
[7] = system: NCI-H226 lung
[8] = system: RXF 393 renal
[9] = system: CAKI-1 renal
[10] = system: SF-268 CNS
[11] = system: A498 renal
[12] = system: SR leukemia
[13] = system: HS 578T breast
[14] = system: PC-3 prostate
[15] = system: HCT-15 colon
[16] = system: OVCAR-3 ovarian
[17] = system: OVCAR-8 ovarian
[18] = system: NCI-H23 lung
[19] = system: SF-295 CNS
[20] = system: HOP-92 NSCLC
[21] = system: HCC-2998 colon
[22] = system: MDA-MB-231 breast
[23] = system: HCT-116 colon
[24] = system: SK-MEL-5 melanoma
[25] = system: BT-549 breast
[26] = system: SK-OV-3 ovarian
[27] = system: RPMI-8226 leukemia
[28] = system: K-562 leukemia
[29] = system: SNB-75 CNS
[30] = system: SF-539 CNS
[31] = system: U251 CNS
[32] = system: MOLT-4 leukemia
[33] = system: SNB-19 CNS
[34] = system: EKVX NSCLC
[35] = system: OVCAR-5 ovarian
[36] = system: OVCAR-4 ovarian
[37] = system: MALME-3M melanoma
[38] = system: SK-MEL-2 melanoma
[39] = system: UACC-62 melanoma
[40] = system: TK-10 renal
[41] = system: LOX IMVI melanoma
[42] = system: HOP-62 NSCLC
[43] = system: NCI-H522 lung
[44] = system: SN12C renal

## CC(C)(C)c1ccc2c(c1)CNCCNCCNCc1cc(C(C)(C)C)ccc1OCC1(CO2)COc2ccc(C(C)(C)C)cc2CNCCNCCNCc2cc(C(C)(C)C)ccc2OC1
[1]
  TGI: 1330 nM
[2]
  TGI: 2830 nM
[3]
  TGI: 1830 nM
[4]
  TGI: 379 nM
[5]
  TGI: 2830 nM
[6]
  TGI: 562 nM
[7]
  TGI: 1970 nM
[8]
  TGI: 3740 nM
[9]
  TGI: 3170 nM

## COc1cc2cc(C(=O)N3CC(CCl)c4c3cc(N(C)C)c3ccccc43)[nH]c2c(OC)c1OC (stereo unspecified)
[10]
  TGI: 16 nM
[1]
  TGI: > 100000 nM
[2]
  TGI: 492 nM
[11]
  TGI: 17.4 nM
[12]
  TGI: < 10 nM
[3]
  TGI: 18.5 nM
[13]
  TGI: 135 nM
[14]
  TGI: 180 nM
[15]
  TGI: > 41400 nM
[16]
  TGI: 37.7 nM
[17]
  TGI: 20.6 nM
[18]
  TGI: 12.7 nM
[5]
  TGI: > 100000 nM
[19]
  TGI: 38.1 nM
[20]
  TGI: > 53900 nM
[21]
  TGI: 80.9 nM
[22]
  TGI: > 100000 nM
[23]
  TGI: > 100000 nM
[6]
  TGI: 1090 nM
[24]
  TGI: 24.1 nM
[25]
  TGI: 5910 nM
[26]
  TGI: 39.5 nM
[27]
  TGI: 501 nM
[28]
  TGI: 47.7 nM
[8]
  TGI: 33.4 nM
[29]
  TGI: 25.2 nM
[30]
  TGI: 13.2 nM
[31]
  TGI: 4660 nM
[32]
  TGI: 60.8 nM
[33]
  TGI: 10600 nM
[34]
  TGI: 24.5 nM
[35]
  TGI: 39 nM
[36]
  TGI: 114 nM
[37]
  TGI: 97.6 nM
[38]
  TGI: < 10 nM
[39]
  TGI: 16.7 nM
[40]
  TGI: > 100000 nM
[41]
  TGI: 1860 nM
[42]
  TGI: 52.9 nM
[9]
  TGI: < 10 nM
[43]
  TGI: 26.1 nM
[44]
  TGI: 235 nM
